We go through three molecules from patent publication US20030050236A1, “Compounds that enhance tumor death” (The University of Chicago, priority 2000, published 2003).

Where a SMILES comes first, the peptide text is derived from it. [ ]: non-standard residue; d: D form. The star is where a group is joined. Palmitoyl = CCCCCCCCCCCCCCCC(=O)*; Dap = NC[C@H](N)C(=O)O

Broadly, the inhibition is the change of the read-out against control, counted positive when it falls.

The test system of one data set is caspase 3. The experiment in a line: Caspase 3-like activity (DEVD-AFC) in LA-N-5 cells. As to conditions: LY-294002 30 μM, C2 ceramide 25 μM. It counts as cell-based, human. The procedure: Cells treated with drug or vehicle were harvested, washed with PBS and cell pellets lysed in 25 mM Hepes (pH 7.4), containing 2 mM dithiothreitol (DTT), 5 mM EDTA and […] digitonin. After centrifugation at 6,000 rpm for 10 min to remove cell debris and unruptured cells, an aliquot of the supernatant was added to a reaction buffer consisting of 25 mM Hepes (pH 7.4), 2 mM DTT, 5 mM EDTA, […] digitonin and 2.5 μg/ml DEVD-AFC. After 1 h incubation, the hydrolysis of substrate was quantified by fluorometry at excitation 400 mn and emission 505 nm. The blank reaction was done in the absence of cell lysate. Enzyme activity was expressed as the amount of fluorescence produced per mg protein/h.

In data set [1] the test system is LA-N-5 human neuroblastoma cells. The experiment in a line: Cell viability / cell death by MTT assay. Type of data set: cell-based.
Procedure: Cells were plated in 24-well culture plates containing 500 μl media. After drug treatment, 50 μl MTT (5 mg/ml in PBS) was added and incubated for 20 min at 37° C. An aliquot of 500 μl of 10% sodium dodecyl sulfate in 0.01 N HCl was added. After incubating overnight, the absorbance at 570 nm was determined by spectrophotometry. Cell viability was calculated as percent cell survival by dividing absorbance [treatment-blank] by absorbance [control-blank], where treatment is the reading for the treated cells, control is for vehicle-treated cells and blank is for MTT added to the media without cells.
LA-N-5 human neuroblastoma cells were grown in DMEM supplemented with 10% fetal bovine serum and 1% gentamicin. […] Cell death was measured by the MTT method (Cho et al., 2000a; Cho et al., 2000b; Cho et al., 2000c).
Another data set concerns Ras. The data set can be described thus: Ras activation: guanine nucleotide binding and membrane association. Type of data set: cell-based, human. As to conditions: C2 ceramide 30 μM. The method, then: (§1) Cells were harvested in a lysis buffer containing 10 mM Tris (pH 7.4), 1 mM EGTA, 1 mM EDTA, 1 mM DTT, 25 mM NaF, 2 mM MgCl2 and 10 μg/ml aprotinin, leupeptin and pepstatin. For subcellular fractionation, the postnuclear cell extract was centrifuged at 100,000× g for 45 min to obtain a cytosolic fraction and the pellet was washed and resuspended in a lysis buffer to obtain a membrane fraction. Whole cell lysate (for caspase-3 and pFLAG-PPT1) or fractionated proteins (for p21Ras and GAP-43) were resolved by 10%, 12% or 15% of SDS-PAGE for GAP-43, caspase-3 and pFLAG-PPT1, or Ras, respectively. For immunoblotting with anti-Akt antibodies, cells were lysed in RIPA buffer consisting of 50 mM Tris (pH 7.4), 150 MM NaCl, 1 mM EGTA, 1% Nonidet P-40, 0.25% sodium deoxycholate, 1 mM NaF and protease inhibitors. After lysis on ice for 1 h, cell debris was removed by centrifugation at 3,000 rpm for 5 min and an equal amount of postnuclear cell extract loaded on 8.5% SDS-PAGE. Resolved proteins were transferred to membrane overnight, blots incubated with a blocking solution for 1 h, incubated with appropriate primary and secondary antibodies and the signals detected by ECL.
Cells (10×10^6) were washed and incubated with 0.8 mCi/ml ^32Pi for 4 h in phosphate-free DMEM. […] Cell lysate was immunoprecipitated with monoclonal anti-Ras and bound nucleotides eluted with 1 mM EDTA/25 μM GDP and GTP were analyzed by TLC using 0.75 M KH2PO4 (pH 3.5). After autoradiography, the radioactive spots corresponding to GDP and GTP were counted.
p21^Ras is a key regulator in the signaling pathways involved in variety of events such as cell proliferation, transcription and apoptosis. […] Therefore, the subcellular localization of Ras protein was analyzed after C2-ceramide treatment. Cells were treated with C2 ceramide (30 μM), harvested at 10 min and 60 min and the membrane fraction (100,000× g pellet) analyzed by immunoblotting.

For the next data set, the system named is LA-N-5 cells. The data set can be described thus: DNA fragmentation assay (Hoechst 33285). Type of data set: cell-based, human. As to conditions: LY-294002 30 μM, C2 ceramide 25 μM. The method, then: Quantification of DNA fragments was performed as described previously (Dawson et al., 1997). Briefly, cells were lysed in 5 mM Tris (pH 8.0) with 0.1% Triton X-100 and 20 mM EDTA and centrifuged at 20,000× g for 40 min at 4° C. For determination of DNA fragments lost in culture media, an aliquot of media was adjusted to a final concentration of 25 mM EDTA and centrifuged as described above. […] Fluorescence was detected by luminescent spectrometer using excitation 365 nm and emission 460 mn. DNA values were calculated using a standard curve obtained from the measurement of calf thymus DNA fluorescence.

The next data set has as its target T1, PPT1 (Homo sapiens, UniProt P50897).
T1 sequence (P50897 28-306): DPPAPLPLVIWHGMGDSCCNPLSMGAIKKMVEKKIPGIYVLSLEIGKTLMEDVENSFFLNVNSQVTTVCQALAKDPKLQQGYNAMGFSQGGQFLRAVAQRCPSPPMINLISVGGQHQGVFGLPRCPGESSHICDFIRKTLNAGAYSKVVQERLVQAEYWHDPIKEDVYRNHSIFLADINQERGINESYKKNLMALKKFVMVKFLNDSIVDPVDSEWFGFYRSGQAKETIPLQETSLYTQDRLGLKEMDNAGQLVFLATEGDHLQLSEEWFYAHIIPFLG
The data set can be described thus: In vitro PPT1 activity assay, [14C]palmitoyl peptide substrates, cell extract. As to conditions: read-out: inhibition in an in vitro assay (PPT).

In data set [2] the test system is COS cells and embryonic neuron primary cultures.
The test system of a further data set is Akt. The experiment in a line: Akt phosphorylation immunoblot. As to conditions: insulin 5 min; LY294002 pretreatment; vector-transfected cells. It counts as cell-based, human. The procedure: as §1, with “After lysis on ice for 1 h, cell debris was removed by centrifugation at 3,000 rpm for 5 min and an equal amount of postnuclear cell extract loaded on 8.5% SDS-PAGE.” left out
To further investigate the downstream pathway by which PPT1 exerts protection against apoptosis, the activation of Akt was examined in control and PPT1 overexpressing cells. […] Therefore, the activation of Akt was analyzed by immunoblotting the cell extracts with an antibody specific to phosphorylated Akt (Ser473). […]

Procedure for PPT1: Incubations were performed for 20 min at 37° C. and reactions terminated by addition of 1 ml of chloroform/methanol/2N HCl (2:1:0.06, v/v). After the centrifugation, organic phase was analyzed by HPTLC using n-butanol/pyridine/acetic acid/water (45:30:9:36, v/v) and [14C] palmitate release was quantified.
The peptide sequence, AcGCVKIKK (a palmitoylation site in K-Ras), was modified by substituting the SH group of cysteine with NH2 to generate diamino propionic acid, which was then acylated with palmitate (AcG-palmitoyl diamino propionate-VKIKK). […] In another set of experiments, the unmodified peptide itself (AcGCVKIKK) was used as a control to exclude the possibility of a nonspecific effect of the sequence on PPT activity.
In brief, the cell sonicate was incubated in the assay mixture containing 50 mM sodium citrate (pH 4.0) and IRY([^4C]palmitoylated)CWLRR octapeptide (2,000-4,000 cpm) for 20 min at 37° C. For the pH profile of PPT1 activity, 50 mM sodium citrate (pH 5 or 6) or 50 mM Tris-HCl (pH 7.4) was used with other conditions remaining the same. After addition of 1 ml of chloroform/methanol/2N HCl (2:1:0.06, by volume) and centrifugation, the organic phase was dried, reconstituted sample analyzed by HPTLC using n-butanol/pyridine/acetic acid/water (45:30:9:36, by volume) and the radioactive spot corresponding to [^14C] palmitate was counted.
PPT1 activity was measured as described above. In brief, the cell sonicate was incubated in the assay mixture (50 mM sodium citrate (pH 4.0) for [^14C]palmitoylated [sequence] Po peptide substrate (3,000-4,000 cpm) or 50 mM Tris (pH 7.4) for [^14C]palmitoylated MLCCMRR GAP43 peptide substrate) for 20 min at 37° C. After organic extraction, samples were analyzed by HPTLC using n-butanol/pyridine/acetic acid/water (45:30:9:36, by volume) and the radioactive spot corresponding to [^14C] palmitate was counted.

For the molecule `CCCCCCCCCCCCC/C=C/[C@@H](O)[C@H](CO)NC(C)=O` [C2 ceramide], the “activation of caspase 3” value in the data set on caspase 3 is “time-dependent activation of caspase 3”. For the same molecule, the “death of cells (MTT)” value in data set [1] (30 μM C2-ceramide alone, 6 h) was “about 10%”. Besides, in data set [1] (LY-294002 30 μM, C2 ceramide 25 μM, 24 hrs), the “cell death (MTT assay)” value is given as “about 50%”. Besides, the “GTP/(GDP+GTP) ratio increase over control” value in the data set on Ras (10 min) turned out to be 33%; in the data set on Ras (60 min), 85%. The “membrane-association of Ras” value in the data set on Ras (10 min and 60 min) was “time-dependent increase in membrane-association of Ras”. Moreover, the DNA fragmentation result in the data set on LA-N-5 cells is listed as “increase in DNA fragmentation”.
As to `CCCCCCCCCCCCCCCC(=O)NC[C@H](NC(=O)CNC(C)=O)C(=O)N[C@H](C(=O)N[C@@H](CCCCN)C(=O)N[C@H](C(=O)N[C@@H](CCCCN)C(=O)N[C@@H](CCCCN)C(N)=O)[C@@H](C)CC)C(C)C` [DAP1, AcG-palmitoyl diamino propionate-VKIKK] (Ac-G[Dap](Palmitoyl)VKIKK-NH2), the inhibition at 20 µM at PPT1 stood at 85%. Moreover, the “toxicity to non-dividing cells” value in the data set on non-dividing cells is listed as “does not appear to be toxic”. Besides, in data set [2], the “effect on COS cells and embryonic neuron primary cultures” value is listed as “much less effect”.
As to “insulin: growth factor used as positive control for Akt activation”, the “phosphorylation of Akt (Ser473)” value in the data set with Akt is “induced significant phosphorylation of Akt”.
